Assay results as given in patent US12637472B2, “Benzimidazole heteroatom-containing spiro compound and medicinal use thereof” (Changzhi University, priority 2023, dated 2026).

Assays:
Format in all cases: cell-based
[1] = system: Human liver tumor cells HepG2; assay: MTT in vitro cell proliferation inhibition experiment, HepG2; conditions: Homo sapiens, MTT method, 48 h contact between compound and cell, read-out: Antiproliferative activity (IC50, μM) HepG2
Description: (§1) Human liver tumor cells HepG2, human colon cancer cells HCT116, and human gastric adenocarcinoma cells AGS were purchased from the Institute of Basic Medical Sciences, Chinese Academy of Medical Sciences. The cells each were preserved and passaged in the laboratory of the present disclosure according to respective cultivation data. Each cell line was routinely inoculated in a 50 mL cell culture flask, and cultivated with a 10% fetal bovine serum-containing DMEM/IRP-1640 medium at 37° C., 5% CO2, and 100% humidity, where the medium was changed daily. When growing to a confluency of 80% to 90%, cells were digested with a mixture of trypsin and EDTA and passaged according to 1:3.
(§2) An in vitro cell activity and proliferation inhibition experiment was conducted by an MTT method to investigate an impact of a target compound on a survival activity of each cell. Cells at a logarithmic growth phase were inoculated at 5×10^3 cells (100 μL)/well in a 96-well culture plate and cultivated for 24 h, and then compound solutions with different concentrations prepared in advance were added (100 μL) to the plate. At least 3 replicate wells were set for each concentration. A solvent control group without a compound and a blank control group without a cell were set. Edge wells each were filled with 200 μL of sterilized water. […] A liquid in each well was completely removed carefully, 150 μL of DMSO was added to each well, the plate was gently shaken on a microshaker for 10 min to make a purple crystal fully dissolved, and then an absorbance value was determined at 570 nm by a microplate reader. With a cell viability of the solvent control group without a compound as 100%, a cell survival rate was calculated as follows: a cell survival rate=(an absorbance value of a compound group−an absorbance value of the blank control group)/(an absorbance value of the control group−an absorbance value of the blank control group)×100%. A half-maximal inhibitory concentration (IC50) of a compound for a cell was calculated by the Graphpad Prism 5 software.

[2] = system: human colon cancer cells HCT116; assay: MTT in vitro cell proliferation inhibition experiment, HCT116; conditions: Homo sapiens, HCT-116, MTT method, 48 h contact between compound and cell, read-out: Antiproliferative activity (IC50, μM) HCT116
Description: as §1, §2

[3] = system: human gastric adenocarcinoma cells AGS; assay: MTT in vitro cell proliferation inhibition experiment, AGS; conditions: Homo sapiens, MTT method, 48 h contact between compound and cell, read-out: Antiproliferative activity (IC50, μM) AGS
Description: as §1, §2

SMILES | IC50 [1] [µM] | IC50 [2] [µM] | IC50 [3] [µM]
CC(C)C1NC2(C(=O)c3ccccc3C2=O)C(C(=O)c2nc3ccccc3[nH]2)C1C1CCCCC1 (stereo not drawn) [Compound 25, 3-(1H-benzimidazol-2-carbonyl)-4-cyclohexyl-5-isopropylspiro[inden-2,2′-pyrrolidine]-1,3-dione] | 9.67 | 5.67 | 12.4
CC(C)C1NC2(C(=O)c3ccccc3C2=O)C(C(=O)c2nc3ccccc3[nH]2)C1c1ccc(Cl)c(F)c1 (stereo not drawn) [Compound 26, 3-(1H-benzimidazol-2-carbonyl)-4-(3-fluoro-4-chlorophenyl)-5-isopropylspiro[inden-2,2′-pyrrolidine]-1,3-dione] | > 100 | 79 | 60
CC(C)C1NC2(C(=O)c3ccccc3C2=O)C(C(=O)c2nc3ccccc3[nH]2)C1c1ccc(Cl)cc1 (stereo not drawn) [Compound 27, 3-(1H-benzimidazol-2-carbonyl)-4-(4-chlorophenyl)-5-isopropylspiro[inden-2,2′-pyrrolidine]-1,3-dione] | > 100 | > 100 | 90.1
CCOc1ccc(C2C(C(C)C)NC3(C(=O)c4ccccc4C3=O)C2C(=O)c2nc3ccccc3[nH]2)cc1 (stereo not drawn) [Compound 31, 3-(1H-benzimidazol-2-carbonyl)-4-(4-ethoxyphenyl)-5-isopropylspiro[inden-2,2′-pyrrolidine]-1,3-dione] | 44.6 | 56.4 | 59.9
CSCCC1NC2(C(=O)c3ccccc3C2=O)C(C(=O)c2nc3ccccc3[nH]2)C1C1CCCCC1 (stereo not drawn) [Compound 33, 3-(1H-benzimidazol-2-carbonyl)-4-cyclohexyl-5-(methylthio)ethylspiro[inden-2,2′-pyrrolidine]-1,3-dione] | 12.5 | 15.5 | 9.77
CSCCC1NC2(C(=O)c3ccccc3C2=O)C(C(=O)c2nc3ccccc3[nH]2)C1c1ccc(C)cc1 (stereo not drawn) [Compound 36, 3-(1H-benzimidazol-2-carbonyl)-5-(2-methylthio)ethyl-4-p-tolylspiro[inden-2,2′-pyrrolidine]-1,3-dione] | 13.5 | 15.5 | 9.78
CCOc1ccc(C2C(CCSC)NC3(C(=O)c4ccccc4C3=O)C2C(=O)c2nc3ccccc3[nH]2)cc1OCC (stereo not drawn) [Compound 37, 3-(1H-benzimidazol-2-carbonyl)-3,4-diethoxyphenyl-5-(2-methylthio)ethylspiro[inden-2,2′-pyrrolidine]-1,3-dione] | > 100 | > 100 | 78.6
O=C(c1nc2ccccc2[nH]1)C1C(c2ccc(Cl)cc2)C(c2c[nH]c3ccccc23)NC12C(=O)c1ccccc1C2=O (stereo not drawn) [Compound 43, 3-(1H-benzimidazol-2-carbonyl)-4-(4-chlorophenyl)-5-(1H-indol-3-yl)spiro[inden-2,2′-pyrrolidine]-1,3-dione] | 34.6 | 55.5 | 39.7
CCOc1ccc(C2C(c3c[nH]c4ccccc34)NC3(C(=O)c4ccccc4C3=O)C2C(=O)c2nc3ccccc3[nH]2)cc1OCC (stereo not drawn) [Compound 45, 3-(1H-benzimidazol-2-carbonyl)-3,4-diethoxyphenyl-5-(1H-indol-3-yl)spiro[inden-2,2′-pyrrolidine]-1,3-dione] | > 100 | 56.4 | > 100
O=C(c1nc2ccccc2[nH]1)C1C(c2cccc(Br)c2)C(c2c[nH]c3ccccc23)NC12C(=O)c1ccccc1C2=O (stereo not drawn) [Compound 46, 3-(1H-benzimidazol-2-carbonyl)-4-(3-bromophenyl)-5-(1H-indol-3-yl)spiro[inden-2,2′-pyrrolidine]-1,3-dione] | 12.2 | 18.4 | 21.4

The next lines start with the values.

IC50 [1] [µM] | IC50 [2] [µM] | IC50 [3] [µM] | SMILES
3.45 | 4.56 | 2.98 | Cc1ccc(C2C(C(C)C)NC3(C(=O)c4ccccc4C3=O)C2C(=O)c2nc3ccccc3[nH]2)cc1 (stereo not drawn) [Compound 28, 3-(1H-benzimidazol-2-carbonyl)-5-isopropyl-4-p-tolylspiro[inden-2,2′-pyrrolidine]-1,3-dione]
44.6 | 53.2 | 67.1 | CCOc1ccc(C2C(C(C)C)NC3(C(=O)c4ccccc4C3=O)C2C(=O)c2nc3ccccc3[nH]2)cc1OCC (stereo not drawn) [Compound 29, 3-(1H-benzimidazol-2-carbonyl)-3,4-diethoxyphenyl-5-isopropylspiro[inden-2,2′-pyrrolidine]-1,3-dione]
2.34 | 3.42 | 2.98 | CC(C)C1NC2(C(=O)c3ccccc3C2=O)C(C(=O)c2nc3ccccc3[nH]2)C1c1cccc(Br)c1 (stereo not drawn) [Compound 30, 3-(1H-benzimidazol-2-carbonyl)-4-(3-bromophenyl)-5-isopropylspiro[inden-2,2′-pyrrolidine]-1,3-dione]
66.7 | > 100 | > 100 | CC(C)C1NC2(C(=O)c3ccccc3C2=O)C(C(=O)c2nc3ccccc3[nH]2)C1c1ccc(Br)cc1 (stereo not drawn) [Compound 32, 3-(1H-benzimidazol-2-carbonyl)-4-(4-bromophenyl)-5-isopropylspiro[inden-2,2′-pyrrolidine]-1,3-dione]
36.6 | 44.7 | 39.7 | CSCCC1NC2(C(=O)c3ccccc3C2=O)C(C(=O)c2nc3ccccc3[nH]2)C1c1ccc(Cl)c(F)c1 (stereo not drawn) [Compound 34, 3-(1H-benzimidazol-2-carbonyl)-4-(4-chloro-3-fluorophenyl)-5-(2-methylthio)ethylspiro[inden-2,2′-pyrrolidine]-1,3-dione]
40.5 | 42.7 | 45.8 | CSCCC1NC2(C(=O)c3ccccc3C2=O)C(C(=O)c2nc3ccccc3[nH]2)C1c1ccc(Cl)cc1 (stereo not drawn) [Compound 35, 3-(1H-benzimidazol-2-carbonyl)-4-(4-chlorophenyl)-5-(2-methylthio)ethylspiro[inden-2,2′-pyrrolidine]-1,3-dione]
49.8 | 47.4 | 40.9 | CSCCC1NC2(C(=O)c3ccccc3C2=O)C(C(=O)c2nc3ccccc3[nH]2)C1c1cccc(Br)c1 (stereo not drawn) [Compound 38, 3-(1H-benzimidazol-2-carbonyl)-4-(3-bromophenyl)-5-(2-methylthio)ethylspiro[inden-2,2′-pyrrolidine]-1,3-dione]
> 100 | > 100 | > 100 | CCOc1ccc(C2C(CCSC)NC3(C(=O)c4ccccc4C3=O)C2C(=O)c2nc3ccccc3[nH]2)cc1 (stereo not drawn) [Compound 39, 3-(1H-benzimidazol-2-carbonyl)-4-(4-ethoxyphenyl)-5-(2-methylthio)ethylspiro[inden-2,2′-pyrrolidine]-1,3-dione]
9.56 | 56.7 | 66.2 | CSCCC1NC2(C(=O)c3ccccc3C2=O)C(C(=O)c2nc3ccccc3[nH]2)C1c1ccc(Br)cc1 (stereo not drawn) [Compound 40, 3-(1H-benzimidazol-2-carbonyl)-4-(4-bromophenyl)-5-(2-methylthio)ethylspiro[inden-2,2′-pyrrolidine]-1,3-dione]
89.6 | 77.4 | 82.3 | O=C(c1nc2ccccc2[nH]1)C1C(C2CCCCC2)C(c2c[nH]c3ccccc23)NC12C(=O)c1ccccc1C2=O (stereo not drawn) [Compound 41, 3-(1H-benzimidazol-2-carbonyl)-4-cyclohexyl-5-(1H-indol-3-yl)spiro[inden-2,2′-pyrrolidine]-1,3-dione]
3.45 | 4.78 | 3.01 | O=C(c1nc2ccccc2[nH]1)C1C(c2ccc(Cl)c(F)c2)C(c2c[nH]c3ccccc23)NC12C(=O)c1ccccc1C2=O (stereo not drawn) [Compound 42, 3-(1H-benzimidazol-2-carbonyl)-4-(4-chloro-3-fluorophenyl)-5-(1H-indol-3-yl)spiro[inden-2,2′-pyrrolidine]-1,3-dione]
5.67 | 5.34 | 6.02 | Cc1ccc(C2C(c3c[nH]c4ccccc34)NC3(C(=O)c4ccccc4C3=O)C2C(=O)c2nc3ccccc3[nH]2)cc1 (stereo not drawn) [Compound 44, 3-(1H-benzimidazol-2-carbonyl)-5-(1H-indol-3-yl)-4-p-tolylspiro[inden-2,2′-pyrrolidine]-1,3-dione]
34.6 | 39.8 | 38 | CCOc1ccc(C2C(c3c[nH]c4ccccc34)NC3(C(=O)c4ccccc4C3=O)C2C(=O)c2nc3ccccc3[nH]2)cc1 (stereo not drawn) [Compound 47]
40.2 | 37.8 | 44.2 | O=C(c1nc2ccccc2[nH]1)C1C(c2ccc(Br)cc2)C(c2c[nH]c3ccccc23)NC12C(=O)c1ccccc1C2=O (stereo not drawn) [Compound 48]
